BindingDB's records for doi:10.7270/Q2DV1HGT (Burnham Center For Chemical Genomics, 2012)

target: T1, Tyrosine-protein phosphatase non-receptor type 5 (Homo sapiens, UniProt P54829); assay: STEP phosphatase inhibitors, confirmation, biochemical, fluorescence intensity, uHTS hits (AID 602372)
T1 sequence (P54829 whole entry): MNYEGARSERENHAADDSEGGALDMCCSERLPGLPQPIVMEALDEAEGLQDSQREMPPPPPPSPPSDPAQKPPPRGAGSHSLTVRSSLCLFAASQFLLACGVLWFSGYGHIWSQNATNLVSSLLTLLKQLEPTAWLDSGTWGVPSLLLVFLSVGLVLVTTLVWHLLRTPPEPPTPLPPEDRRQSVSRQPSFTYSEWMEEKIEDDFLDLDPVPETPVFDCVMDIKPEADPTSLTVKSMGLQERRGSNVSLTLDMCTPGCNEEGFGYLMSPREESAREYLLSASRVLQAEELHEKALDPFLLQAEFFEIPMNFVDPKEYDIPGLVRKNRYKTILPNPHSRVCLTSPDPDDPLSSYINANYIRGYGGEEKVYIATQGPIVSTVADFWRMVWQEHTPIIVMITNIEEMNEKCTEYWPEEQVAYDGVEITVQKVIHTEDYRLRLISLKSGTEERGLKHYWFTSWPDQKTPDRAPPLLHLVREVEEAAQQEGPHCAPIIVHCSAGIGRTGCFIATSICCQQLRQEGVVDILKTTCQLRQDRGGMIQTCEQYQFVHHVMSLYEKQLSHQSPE

IC50	Compound
22.6 µM	S=C1N=C2C(=C3SCCS3)CCCC2C(c2ccccc2)N1 (stereo not given) [MLS000516376]
4.12 µM	CSc1ccc(CN=Nc2ccc(S(=O)(=O)Nc3ccccc3C(=O)O)cc2[N+](=O)[O-])cc1 [MLS002245633]
8.95 µM	O=C(N/N=C/C1C=CC=CC1=O)c1cccc([N+](=O)[O-])c1 (stereo not given) [MLS002667988]
24.4 µM	COc1ccc(OC)c(-n2c(O)c3o[nH]c(-c4ccccc4Cl)c-3c2=O)c1 [SMR000046218]

Further lines, the compound ahead of its results:

Compound	IC50
S=C1N=C(C23CC4CC(CC(C4)C2)C3)CC(c2ccc3c(c2)OCO3)N1 (stereo not given)	56.8 µM
CCOc1cc(CN=Nc2nc(O)c(CC(=O)O)s2)ccc1OCc1ccc(Cl)cc1Cl [2-[2-[(N''E)-N''-[4-(2,4-dichlorobenzyl)oxy-3-ethoxy-benzylidene]hydrazino]-4-keto-2-thiazolin-5-yl]acetic acid]	4.09 µM
C=c1c(O)c(O)c(=C2C(=O)C(=O)C(C)C(=O)C2=O)c(O)c1O (stereo not given) [(3E)-5-hydroxy-6-methyl-3-(2,3,5-trihydroxy-4-methyl-6-oxo-1-cyclohexa-2,4-dienylidene)cyclohex-5-ene-1,2,4-trione]	> 80 µM
O=C1C(=O)N(CCCO)C(c2ccc(Br)cc2)C1C(=O)c1ccc(Br)cc1 (stereo not given) [(4E)-5-(4-bromophenyl)-4-[(4-bromophenyl)-oxidanyl-methylidene]-1-(3-oxidanylpropyl)pyrrolidine-2,3-dione]	36.2 µM
CCN(CC)P(=O)(NC(=O)C(Cl)(Cl)Cl)N(CC)CC [MLS000564159]	> 80 µM
COc1ccc(CN=Nc2nc(O)c(CC(=O)O)s2)cc1OCc1ccc(Cl)cc1Cl [[2-({3-[(2,4-dichlorobenzyl)oxy]-4-methoxybenzylidene}hydrazono)-4-oxo-1,3-thiazolidin-5-yl]acetic acid]	9.72 µM
